From patent publication US20160101076A1, “Use of Sumoylation Inhibitors for Treating Cancer” (priority 2013, published 2016)

How the values were obtained:
BT20 xenografts = test: BT20 xenografts, animals gavaged; assay type: in vivo; settings: BT20 xenografts in nude mice, animals gavaged vs vehicle; FIG. 8B
Excerpt: (§1) FIGS. 8A-8D. SUMO Inhibitors Repressed Outgrowth of Xenografts. FIG. 8A. […] FIG. 8B. Tumor-free survival of nude mice (n=5 per group) inoculated with BT20 cells with animals gavaged with AA vs. vehicle. FIG. 8C. IOWA-1T cells were pre-treated with anacardic acid (AA) or vehicle and mice were followed until requiring euthanasia due to tumor size (Overall Survival). […] FIG. 8D. Nude mice were inoculated with 1×10^6, 5×10^5, or 2.5×10^5 IOWA-1T cells and animals were gavaged with either vehicle or AA; vehicle-gavaged mice developed tumors in 5, 10 and 12 days, respectively.
To address the effects of GA and AA on tumor initiation, BT20 cells were pretreated with GA or AA compared to vehicle prior to inoculation of xenografts in nude mice. As noted in FIG. 8A, pretreatment of the cells repressed the formation of tumor xenografts, whereas, vehicle treated cells formed xenografts with a median time of 8 weeks. […] We created a breast carcinoma cell line (IOWA-1T) from the basal tumor-derived cells used in FIG. 6A. The IOWA-1T cell line rapidly forms locally advanced tumors in nude mice. Identical experiments using the IOWA-1T basal cell line confirmed that either pre-treating the cancer cells or gavaging animals with AA repressed tumor initiation of xenografts (FIGS. 8C and 8D). […]

IOWA-1T xenografts [1] = test: IOWA-1T xenografts from pre-treated cells; assay type: in vivo; settings: IOWA-1T cells pre-treated vs vehicle, nude mice; p=0.002; FIG. 8C
Excerpt: as §1
(§2) To address the effects of GA and AA on tumor initiation, BT20 cells were pretreated with GA or AA compared to vehicle prior to inoculation of xenografts in nude mice. As noted in FIG. 8A, pretreatment of the cells repressed the formation of tumor xenografts, whereas, vehicle treated cells formed xenografts with a median time of 8 weeks. […] We created a breast carcinoma cell line (IOWA-1T) from the basal tumor-derived cells used in FIG. 6A. The IOWA-1T cell line rapidly forms locally advanced tumors in nude mice. Identical experiments using the IOWA-1T basal cell line confirmed that either pre-treating the cancer cells or gavaging animals with AA repressed tumor initiation of xenografts (FIGS. 8C and 8D).
(§3) Statistical analysis was performed using the two-sided Student's T-test for continuous variables. […]

IOWA-1T xenografts [2] = test: IOWA-1T xenografts, animals gavaged; assay type: in vivo; settings: nude mice inoculated with 1×10^6, 5×10^5 or 2.5×10^5 IOWA-1T cells, gavaged vs vehicle; p=0.025; FIG. 8D
Excerpt: as §1, §2, §3

[3] = system: SUMO-conjugated proteins, SUMO-conjugated form of TFAP2A in BT549 cells; test: Western blot of SUMO-conjugated proteins in BT549 cells; assay type: cell-based, human; settings: vs vehicle
Experimental: FIG. 16. Anacardic Acid Inhibits SUMO-conjugated Proteins. Western blots were performed on protein extracts of BT549 cells treated with vehicle (V) or anacardic acid (AA) and reacted with antibodies for SUMO1, TFAP2A or GAPDH, as indicated. Equal amounts of protein were loaded in each lane. […] GAPDH control indicates equal loading of protein. MW indicates molecular weight markers.
Western blots were performed as previously described (Cyr et al., 2014; Kulak et al., 2013). For immunoprecipitations anti-TFAP2A, anti-GFP antibody (Life Technologies) or IgG (#sc-2025, Santa Cruz Biotechnology) were cross-linked with Dynabeads protein A (Life Technologies). MCF7 protein was incubated with Dynabeads protein A-Abs complex, protein complexes were washed with DPBS (Gibco) with 0.01% Tween (Research Products International Corp.), and eluted with SDS loading buffer.
Cells were plated ([…]/10 cm2) and treated with 10 μM gingolic or anacardic acid (Sigma) for 2-4 days and collected for qPCR, Western blot and FACS analysis.

CCCCCCCCCCCCCCCc1cccc(O)c1C(=O)O [AA, Anacardic acid (C15:0)]
tumor formation (tumor-free survival) (BT20 xenografts): failed to form tumors
tumor formation (overall survival) (IOWA-1T xenografts [1]): inhibited tumor formation
tumor formation (IOWA-1T xenografts [2]): failed to form tumors
SUMO conjugated form of TFAP2A ([3]; Western blot FIG. 16): inhibited
overall expression of TFAP2A ([3]; Western blot FIG. 16): decrease slightly
SUMO conjugation of proteins globally ([3]; Western blot SUMO1 antibody, FIG. 16): inhibited
